Measurements as given in US12043600B2, “Microbiocidal compounds” (SYNGENTA CROP PROTECTION AG, priority 2018, dated 2024).

Legend:
[1] = system: Mycosphaerella graminicola (Septoria tritici); assay: Mycosphaerella graminicola (Septoria tritici)/Liquid Culture (Septoria Blotch); format: cell-based; conditions: Zymoseptoria tritici; 20 ppm; liquid culture; compared to untreated control
Method: Conidia of the fungus from cryogenic storage are directly mixed into nutrient broth (PDB potato dextrose broth). After placing a (DMSO) solution of test compound into a microtiter plate (96-well format), the nutrient broth containing the fungal spores is added. […] The data are presented as the percentage of disease control of each compound for the biological tests against G. lagenarium (Example B3), P. recondita preventative (Example B13), P. teres (Example B15) and M. graminicola (Example B19) as described above. The testing rates of each biological test is specifically described in table C1 below.

[2] = system: Monographella nivalis (Microdochium nivale); assay: Monographella nivalis (Microdochium nivale)/Liquid Culture (Foot Rot Cereals); format: cell-based; conditions: liquid culture, compared to untreated control
Method: (§1) Conidia of the fungus from cryogenic storage are directly mixed into nutrient broth (PDB potato dextrose broth). After placing a (DMSO) solution of test compound into a microtiter plate (96-well format), the nutrient broth containing the fungal spores is added.

[3] = system: Magnaporthe grisea (Pyricularia oryzae); assay: whole plant or invertebrate; format: in vivo; conditions: foliar, read-out: control of Magnaporthe grisea
[4] = system: Phaeosphaeria nodorum (Septoria nodorum); assay: Phaeosphaeria nodorum (Septoria nodorum)/Wheat/Leaf Disc Preventative (Glume Blotch); format: in vivo; conditions: Parastagonospora nodorum, foliar, wheat leaf disc preventative, compared to untreated control
Method: Wheat leaf segments cv. Kanzler are placed on agar in a multiwell plate (24-well format) and sprayed with the formulated test compound diluted in water. The leaf disks are inoculated with a spore suspension of the fungus 2 days after application. The inoculated test leaf disks are incubated at 20° C. and 75% rh under a light regime of 12 h light/12 h darkness in a climate cabinet and the activity of a compound is assessed as percent disease control compared to untreated when an appropriate level of disease damage appears in untreated check leaf disks (5-7 days after application).

[5] = system: Mycosphaerella arachidis (Cercospora arachidicola); assay: Mycosphaerella arachidis (Cercospora arachidicola)/Liquid Culture (Early Leaf Spot); format: cell-based; conditions: liquid culture, compared to untreated control
Method: as §1

Plasmopara viticola = assay: whole plant or invertebrate; format: in vivo; conditions: foliar, read-out: control of Plasmopara viticola
[6] = system: Puccinia recondita f. sp. tritici; assay: Puccinia recondita f. sp. tritici/Wheat/Leaf Disc Preventative (Brown Rust); format: in vivo; conditions: foliar, 200 ppm, wheat leaf disc preventative, compared to untreated control, read-out: control of Puccinia recondita f. sp. tritici
[7] = system: Puccinia recondita f. sp. tritici; assay: Puccinia recondita f. sp. tritici/Wheat/Leaf Disc Curative (Brown Rust); format: in vivo; conditions: foliar, wheat leaf disc curative, compared to untreated control
Method: Wheat leaf segments cv. Kanzler are placed on agar in multiwell plates (24-well format). The leaf segments are inoculated with a spore suspension of the fungus. Plates are stored in darkness at 19° C. and 75% rh. The formulated test compound diluted in water is applied 1 day after inoculation. The leaf segments are incubated at 19° C. and 75% rh under a light regime of 12 h light/12 h darkness in a climate cabinet and the activity of a compound is assessed as percent disease control compared to untreated when an appropriate level of disease damage appears in untreated check leaf segments (6-8 days after application).

[8] = system: Glomerella lagenarium (Colletotrichum lagenarium); assay: Glomerella lagenarium (Colletotrichum lagenarium)/Liquid Culture (Anthracnose); format: cell-based; conditions: Colletotrichum orbiculare, liquid culture, compared to untreated control
[9] = system: Blumeria graminis f. sp. tritici (Erysiphe graminis f. sp. tritici); assay: Blumeria graminis f. sp. tritici/Wheat/Leaf Disc Preventative (Powdery Mildew on Wheat); format: in vivo; conditions: foliar, wheat leaf disc preventative, compared to untreated control
Method: Wheat leaf segments cv. Kanzler are placed on agar in a multiwell plate (24-well format) and sprayed with the formulated test compound diluted in water. The leaf disks are inoculated by shaking powdery mildew infected plants above the test plates 1 day after application. The inoculated leaf disks are incubated at 20° C. and 60% rh under a light regime of 24 h darkness followed by 12 h light/12 h darkness in a climate chamber and the activity of a compound is assessed as percent disease control compared to untreated when an appropriate level of disease damage appears on untreated check leaf segments (6-8 days after application).

Phytophthora infestans = assay: whole plant or invertebrate; format: in vivo; conditions: in Solanum lycopersicum, foliar, read-out: control of Phytophthora infestans
[10] = system: Botryotinia fuckeliana (Botrytis cinerea); assay: Botryotinia fuckeliana (Botrytis cinerea)/Liquid Culture (Gray Mould); format: cell-based; conditions: liquid culture, compared to untreated control
Method: Conidia of the fungus from cryogenic storage are directly mixed into nutrient broth (Vogels broth). After placing a (DMSO) solution of test compound into a microtiter plate (96-well format), the nutrient broth containing the fungal spores is added.

Phakopsora pachyrhizi = assay: Phakopsora pachyrhizi/Soybean/Preventative (Soybean Rust); format: in vivo; conditions: foliar, 288 h, 200 ppm, soybean leaf disc preventative, compared to untreated control, read-out: control of Phakopsora pachyrhizi

| Compound | inhibition of growth at 20 ppm [1] | melting point | inhibition of growth at 20 ppm [2] | pest or weed control at 200 ppm [3] | pest or weed control at 200 ppm [4] | inhibition of growth at 20 ppm [5] | pest or weed control at 200 ppm (Plasmopara viticola) | pest or weed control at 200 ppm [6] | pest or weed control at 200 ppm [7] | inhibition of growth at 20 ppm [8] | pest or weed control at 200 ppm [9] | pest or weed control at 200 ppm (Phytophthora infestans) | inhibition of growth at 20 ppm [10] | pest or weed control at 200 ppm (Phakopsora pachyrhizi) |
| --- | --- | --- | --- | --- | --- | --- | --- | --- | --- | --- | --- | --- | --- | --- |
| CO/C=C(\Oc1cc(-n2cc(Cl)c(C(C)C)n2)ccc1C)C(=O)OC [Compound E-11, methyl (Z)-2-[5-(4-chloro-3-isopropyl-pyrazol-1-yl)-2-methyl-phenoxy]-3-methoxy-prop-2-enoate] | ≥ 80% | 95 to 100 °C | ≥ 80% | ≥ 80% | ≥ 80% | ≥ 80% | ≥ 80% | ≥ 80% | ≥ 80% |  |  |  |  |  |
| CO/C=C(\Oc1cc(-n2ccc(C3CC3(F)F)n2)ccc1C)C(=O)OC (centres unmarked) [Compound E-26, methyl (Z)-2-[5-[3-(2,2-difluorocyclopropyl)pyrazol-1-yl]-2-methyl-phenoxy]-3-methoxy-prop-2-enoate] | ≥ 80% |  | ≥ 80% | ≥ 80% | ≥ 80% | ≥ 80% | ≥ 80% | ≥ 80% | ≥ 80% | ≥ 80% | ≥ 80% | ≥ 80% |  |  |
| CO/C=C(\Oc1cc(-n2ccc(C)n2)c(Cl)cc1C)C(=O)OC [Compound E-28, methyl (Z)-2-[4-chloro-2-methyl-5-(3-methylpyrazol-1-yl)phenoxy]-3-methoxy-prop-2-enoate] | ≥ 80% |  | ≥ 80% |  |  | ≥ 80% | ≥ 80% | ≥ 80% | ≥ 80% | ≥ 80% | ≥ 80% |  |  |  |
| CO/C=C(\Oc1cc(-n2cc(C#N)cn2)ccc1C)C(=O)OC [Compound E-55, methyl (Z)-2-[5-(4-cyanopyrazol-1-yl)-2-methyl-phenoxy]-3-methoxy-prop-2-enoate] | ≥ 80% |  | ≥ 80% |  |  | ≥ 80% |  | ≥ 80% |  |  |  |  | ≥ 80% |  |
| CO/C=C(\Oc1cc(-n2ccc(COC)n2)ccc1C)C(=O)OC [Compound E-77, methyl (Z)-3-methoxy-2-[5-[3-(methoxymethyl)pyrazol-1-yl]-2-methyl-phenoxy]prop-2-enoate] | ≥ 80% | 107 to 110 °C | ≥ 80% |  |  | ≥ 80% | ≥ 80% | ≥ 80% | ≥ 80% | ≥ 80% | ≥ 80% |  |  | ≥ 50% |
| CO/C=C(\Oc1cc(-n2ccc(C(F)F)n2)ccc1Br)C(=O)OC [Compound E-86, methyl (Z)-2-[2-bromo-5-[3-(difluoromethyl)pyrazol-1-yl]phenoxy]-3-methoxy-prop-2-enoate] | ≥ 80% |  | ≥ 80% | ≥ 80% | ≥ 80% | ≥ 80% |  | ≥ 80% |  | ≥ 80% | ≥ 80% |  | ≥ 80% |  |
| CO/C=C(\Oc1cc(-n2ccc(C(F)(F)F)n2)ccc1Br)C(=O)OC [Compound E-87, methyl (Z)-2-[2-bromo-5-[3-(trifluoromethyl)pyrazol-1-yl]phenoxy]-3-methoxy-prop-2-enoate] | ≥ 80% |  | ≥ 80% |  |  | ≥ 80% | ≥ 80% | ≥ 80% |  | ≥ 80% | ≥ 80% | ≥ 80% | ≥ 80% | ≥ 50% |
| CCc1ccn(-c2ccc(C)c(O/C(=C\OC)C(=O)OC)c2)n1 [Compound E-91, methyl (Z)-2-[5-(3-ethylpyrazol-1-yl)-2-methyl-phenoxy]-3-methoxy-prop-2-enoate] | ≥ 80% |  | ≥ 80% |  |  | ≥ 80% |  | ≥ 80% |  | ≥ 80% | ≥ 80% |  | ≥ 80% | ≥ 50% |
| CO/C=C(\Oc1cc(-n2ccc(C3CC3)n2)ccc1Br)C(=O)OC [Compound E-97, methyl (Z)-2-[2-bromo-5-(3-cyclopropylpyrazol-1-yl)phenoxy]-3-methoxy-prop-2-enoate] | ≥ 80% |  | ≥ 80% |  |  | ≥ 80% |  | ≥ 80% |  | ≥ 80% | ≥ 80% | ≥ 80% | ≥ 80% | ≥ 50% |
| CO/C=C(\Oc1cc(-n2ccc(C)n2)ccc1C)C(=O)OC [Compound E-104, methyl (Z)-3-methoxy-2-[2-methyl-5-(3-methylpyrazol-1-yl)phenoxy]prop-2-enoate] | ≥ 80% |  | ≥ 80% | ≥ 80% | ≥ 80% | ≥ 80% |  | ≥ 80% |  | ≥ 80% | ≥ 80% |  | ≥ 80% |  |
| CO/C=C(\Oc1cc(-n2ccc(C3CCCCC3)n2)cc(C)c1C)C(=O)OC [Compound E-110, methyl (Z)-2-[5-(3-cyclohexylpyrazol-1-yl)-2,3-dimethyl-phenoxy]-3-methoxy-prop-2-enoate] | ≥ 80% | 90 to 93 °C | ≥ 80% | ≥ 80% | ≥ 80% | ≥ 80% | ≥ 80% | ≥ 80% | ≥ 80% | ≥ 80% |  | ≥ 80% |  |  |
| CO/C=C(\Oc1cc(-n2ccc(C3CCCCC3)n2)c(Cl)cc1C)C(=O)OC [Compound E-115, methyl (Z)-2-[4-chloro-5-(3-cyclohexylpyrazol-1-yl)-2-methyl-phenoxy]-3-methoxy-prop-2-enoate] | ≥ 80% | 127 to 129 °C | ≥ 80% |  |  | ≥ 80% |  | ≥ 80% | ≥ 80% | ≥ 80% | ≥ 80% |  |  |  |
| CO/C=C(\Oc1cc(-n2ncc(C3CC3)n2)ccc1C)C(=O)OC [Compound F-8, methyl (Z)-2-[5-(4-cyclopropyltriazol-2-yl)-2-methyl-phenoxy]-3-methoxy-prop-2-enoate] | ≥ 80% |  | ≥ 80% |  | ≥ 80% | ≥ 80% | ≥ 80% |  |  | ≥ 80% | ≥ 80% | ≥ 80% | ≥ 80% |  |
